Assay results taken from publication PMC7022573, “Development of Level A In Vitro–Vivo Correlation for Electrosprayed Microspheres Containing Leuprolide: Physicochemical, Pharmacokinetic, and Pharmacodynamic Evaluation” (Pharmaceutics, 2020).

Key:
[1] = rat, in vivo, sc; cited from earlier work
Description: The IVIVC model development in this study was carried out using Berkeley Madonna (program version 8.3.14). Differences in PK profiles by formulations were evaluated by adding a release compartment to reflect the release characteristic.

[2] = Solvent selection for the drug phase: dissolution of leuprolide; format: physicochemical
Text: Solubility, viscosity, spray pattern, and density of polymer solution were investigated using four solvents (methylene chloride, acetonitrile, ethyl acetate, and acetone), and the optimal solvent was selected from among these. Parameters including dissolution of the leuprolide, miscibility with the solvent of polymer phase, drying degree of dry matter, and density of drug solution were investigated using three solvents (water, ethanol, and methanol), and the optimal solvent was selected.

SMILES: CCNC(=O)[C@@H]1CCCN1C(=O)[C@H](CCCNC(=N)N)NC(=O)[C@H](CC(C)C)NC(=O)[C@@H](CC(C)C)NC(=O)[C@H](Cc1ccc(O)cc1)NC(=O)[C@H](CO)NC(=O)[C@H](Cc1c[nH]c2ccccc12)NC(=O)[C@H](Cc1c[nH]cn1)NC(=O)[C@@H]1CCC(=O)N1 [leuprolide]
- CL (clearance) [1]: 514.46 mL/h
- Vd (volume of distribution) [1]: 487.40 mL
- ka (absorption rate constant) [1]: 16.67 h⁻¹
- Dissolution of Leuprolide ([2]; solvent ethanol): dissolves leuprolide slowly, and the drug easily precipitated
- Dissolution of Leuprolide ([2]; solvent methanol): high solubility
- Dissolution of Leuprolide ([2]; solvent water): high solubility
